Data: paper PMC11744668, “2-Cyanopyrimidine-Containing Molecules for N-Terminal Selective Cyclization of Phage-Displayed Peptides” (ACS Chemical Biology, 2025)
“Also recorded” adds a separate entry of the source. Starred links: 1 amine or outer side, 2 acyl side, 3 side chain; linkers in the order of their positions; H or OH if unused. Positions of bridges follow the written chain, without caps; N, C: chain ends. Non-standard residues stand in square brackets, D forms with d. Residues, ends and D or L forms follow the SMILES beside them. No end group written: not given here. X1 = O=C([C@@H]1CSC(c2ncc(N[*:1])cn2)=N1)[*:2]; Abu = CC[C@H](N)C(=O)O

What was measured:
[1] = target: T1, ZNRF3 extracellular domain (ZNRF3-ECD) (Homo sapiens, UniProt Q9ULT6); experiment: Biolayer interferometry (BLI) binding to immobilized biotinylated ZNRF3-ECD; conditions: for Kd: streptavidin biosensors
T1 construct: The ZNRF3 ECD was expressed and characterized exactly as previously described; SUMO (N, cleaved yes); made in house; host or cells: E. coli BL21, co-expressing BirA
T1 sequence (Q9ULT6 56-219 limits assumed): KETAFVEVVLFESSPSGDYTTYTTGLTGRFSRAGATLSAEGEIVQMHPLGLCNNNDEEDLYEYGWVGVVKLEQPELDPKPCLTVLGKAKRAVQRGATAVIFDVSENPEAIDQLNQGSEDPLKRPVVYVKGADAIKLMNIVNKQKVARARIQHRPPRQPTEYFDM
Procedure: The ZNRF3 ECD was expressed and characterized exactly as previously described.[38] Plasmid pET28a-SUMO-ZNRF3-Avi was cotransformed into E. coli (BL21) along with a plasmid expressing BirA. The cells were then inoculated into 2× YT containing 50 μg/mL kanamycin and 34 μg/mL chloramphenicol and grown at 37 °C until OD = 0.5. Expression was then induced by the addition of 1 mM IPTG and 50 μM biotin, and then the protein was expressed for 18 h at 16 °C. The cells were then pelleted (3750g, 15 min) and then resuspended in buffer A (50 mM Tris-HCl, 10% glycerol, 150 mM NaCl, and 25 mM imidazole, pH 7.5, 20 mL/liter of expression). The cells were then lysed by sonication (1 s on, 1 s off, 5 min, 60% A, repeated once), and the lysate was clarified by centrifugation (25,000g, 20 min). The supernatant was then incubated with a Ni-NTA column for 45 min at 4 °C. The column was then washed with 5 CV of buffer A before being eluted using 2 CV of buffer B (buffer A + 240 mM imidazole). The elution was then concentrated using an Amicon centrifugal filter before being desalted into buffer A on a HiPrep 26/10 column. The SUMO tag was then cleaved by the addition of 30 μg/mL SUMO protease and incubation for 48 h at 4 °C. The protein was then loaded onto a second Ni-NTA column for 45 min at 4 °C, and the flowthrough was collected and concentrated to 1 mL by centrifugation. Pure protein was then isolated using size exclusion chromatography (HiLoad 16/600, Superdex 75 pg) in buffer C (50 mM Tris-HCl, pH 7.5, 10% (v/v) glycerol, 150 mM NaCl, and 0.5 mM EDTA). Pure protein was stored in storage buffer (50 mM Tris-HCl, pH 7.5, 50% (v/v) glycerol, and 150 mM NaCl) at −80 °C before being used for assays.
Biolayer interferometry (BLI) experiments were performed using streptavidin-coated biosensors (Sartorius Bio) on an Octet R8 biolayer interferometer (Sartorius Bio). All experiments were performed in assay buffer (10 mM HEPES, 150 mM NaCl, and 0.01% Tween 20, pH 7.5). Biotinylated ZNRF3 (28 μg/mL in assay buffer) was loaded onto the sensor to 4 nm of loading over 10 min, and then the sensors were quenched for one min with a 1% BSA solution in assay buffer. Peptides were serially diluted in assay buffer containing 0.8% DMF, and the association and dissociation to ZNRF3 were measured over 3 and 5 min, respectively. Between each experiment, sensors were regenerated using 10 mM glycine, pH 1.5. Binding curves were double-referenced against a protein-only sensor and a parallel unloaded sensor to correct for any nonspecific binding to the sensors. All curves were fit in the Octet Kinetic Analysis program (Sartorius Bio) using a 1:1 protein/ligand binding model.

[2] = tested on: CA5C-sfGFP; experiment: Cyclization of CA5C-sfGFP with linkers (LC-ESI-MS); conditions: 100 μM linker, 3 h, 22 °C (RT), PBS pH 7.4, 1 mM TCEP
Procedure: The designed organic linkers were tested for their ability to cyclize a CA5C peptide expressed as an N-terminal fusion to sfGFP (CA5C-sfGFP). Following reduction of the protein with 1 mM TCEP for 30 min, 100 μM compounds were reacted with the reduced CA5C-sfGFP for 3 h in PBS (pH 7.4). Following the reaction, the protein was analyzed via electrospray ionization mass spectrometry (ESI-MS) analysis to determine the desired adduct and any potential side reactions that occurred. […] This is likely due to the electron withdrawing effects of the nitrogen atoms adjacent to the nitrile in the 2-cyanopyrimidine derivatives. […] Following previously established Bayesian deconvolution of the mass spectra,[23] protein masses from each reaction (MW = 28,399 Da) corresponded well with that of the expected cyclic product (MW = 28,399 Da). […] This observed mass matches a TCEP-conjugated product resulting from a previously reported competing phospha-Michael addition of TCEP to the acrylamide moiety.[24] This product has a TCEP-functionalized linker that is nonreactive toward the internal cysteine (Figure 2A,B). Following these initial studies, we then further optimized the cyclization of CA5C-sfGFP using pCAmCP and mCAmCP by varying the reaction time, temperature, and concentration of linkers (Figure 2C).
Purified CA5C-sfGFP was diluted to 500 nM in PBS (pH 7.4) containing 1 mM TCEP and left to incubate for 30 min at 37 °C. Linker (100 μM final concentration) or equivalent amounts of DMSO were then added to the solution, and it reacted at varying times (3 or 16 h) and temperatures (22 or 37 °C). All initial tests for reactivity were performed at 22 °C for 3 h, while linkers pCAmCP and mCAmCP were optimized with the additional conditions. The reaction mixtures were then concentrated and exchanged to ammonium bicarbonate (50 mM, pH 8.0) using an Amicon centrifugal filter (MWCO: 10 kDa). Samples were analyzed using a QExactive Orbitrap LC–MS System (Thermo Fisher) and deconvoluted using UniDec software.[23]

[3] = target: T1, ZNRF3 extracellular domain (ZNRF3-ECD); experiment: Phage selection against ZNRF3-ECD, NGS enrichment, pCAmCP-cyclized library; format: binding
Description: In addition to simply ensuring the cyclization potential on phage, we also looked to investigate the selection differences using two different linkers to macrocyclize the same initial peptide library. ZNRF3 is a membrane protein that contains an intracellular E3 ligase domain and has previously shown potential in promoting degradation of oncogenic membrane proteins, such as PDL1.[32] ZNRF3 also plays a major role in the regulation of the Wnt signaling cascade, which can modulate a variety of cell processes related to oncogenesis and cell differentiation.[33]−[36] […] Because it has an extracellular domain that can be easily accessible to macrocyclic peptides, we envisioned that a selection against the extracellular domain for ZNRF3 (ZNRF3-ECD) would afford peptides that could potentially be used in the development of proteolysis-targeting chimeras (PROTACs) for a variety of membrane proteins. We expressed and characterized a biotinylated ZNRF3-ECD using an Avi-Tag on the […] to facilitate the selection using streptavidin magnetic beads, as has been previously described (Figure S20).[38] […] To avoid the potential for enriching peptides that bind to the streptavidin resin, we alternated loading the protein using streptavidin and NHS-functionalized magnetic beads for the first three rounds of selection (Figure 5).
The purified phage library (10^11 to 10^12 cfu) in binding buffer was incubated with 1 mM TCEP at 37 °C. After 30 min, the linker (pCAmCP or mCAmCP, 10 mM in DMSO) was added to a final concentration of 100 μM. The solution was incubated for 24 h at RT with slow rotation. The library was then directly used for affinity selection without further purification.
Streptavidin-coated magnetic beads (100 μL, 50% slurry, Cytiva Sera-Mag) were transferred to a 1.5 mL tube, washed three times with 1 mL of binding buffer (10 mM HEPES, 150 mM NaCl, 10 mM MgCl2, and 1 mM KCl, pH 7.4), resuspended in 100 μL of binding buffer, and split into two tubes. […]

[4] = 10 mM HEPES, 150 mM NaCl, 0.01% Tween 20, pH 7.5, 0.8% DMF, 1:1 binding model, mean ± s.d., n = 3
[5] = 10 mM HEPES, 150 mM NaCl, 0.01% Tween 20, pH 7.5, 0.8% DMF

Compound | Kd [1, 4] [µM] | reactivity with / cyclization of CA5C-sfGFP (in words) [2] | binding to ZNRF3 (in words) [1, 5] | other results
CC(C)C[C@@H]1NC(=O)[C@H](CCCCN)NC(=O)[C@H](CCC(N)=O)NC(=O)[C@H](CCCNC(=N)N)NC(=O)[C@H](Cc2c[nH]c3ccccc23)NC(=O)[C@H](C)NC(=O)[C@H](CCC(=O)O)NC(=O)[C@H](CC(C)C)NC(=O)[C@@H]2CCCN2C(=O)[C@H](CO)NC(=O)[C@H](CC(C)C)NC(=O)[C@H](Cc2c[nH]cn2)NC(=O)[C@@H](N)CSSC[C@@H](C(N)=O)NC1=O [Peptide Z27S1Disulf] (H-CHLSPLEAWRQKLC-NH2; disulfide 1-14) | 3 ± 2 |  |  | 
C=CC(=O)Nc1cnc(C#N)nc1 [pAcCP] |  | did not result in the expected CA5C-sfGFP cyclization |  | 
CC[C@H](C)[C@@H]1NC(=O)[C@H](Cc2ccccc2)NC(=O)[C@H](CCC(N)=O)NC(=O)[C@H](C)NC(=O)[C@H](C)NC(=O)[C@H](CC(N)=O)NC(=O)[C@@H]2CCCN2C(=O)[C@@H](N)CSSC[C@@H](C(N)=O)NC(=O)[C@H](C)NC(=O)[C@H](CCCNC(=N)N)NC(=O)[C@H](CO)NC(=O)[C@H](Cc2ccc(O)cc2)NC(=O)[C@H](CCCNC(=N)N)NC1=O [Peptide Z27S3Disulf] (H-CPNAAQFIRYSRAC-NH2; disulfide 1-14) | 4 ± 1 |  |  | 
C=CC(=O)Nc1ccnc(C#N)n1 [mAcCP] |  | did not result in the expected CA5C-sfGFP cyclization |  | 
C=CC(=O)Nc1cnc(C#N)cn1 [pAcCPy] |  | essentially no reactivity with the protein |  | 
CC(C)C[C@@H]1NC(=O)[C@H](CCCCN)NC(=O)[C@H](CCC(N)=O)NC(=O)[C@H](CCCNC(=N)N)NC(=O)[C@H](Cc2c[nH]c3ccccc23)NC(=O)[C@H](C)NC(=O)[C@H](CCC(=O)O)NC(=O)[C@H](CC(C)C)NC(=O)[C@@H]2CCCN2C(=O)[C@H](CO)NC(=O)[C@H](CC(C)C)NC(=O)[C@H](Cc2c[nH]cn2)NC(=O)[C@@H]2CSC(=N2)c2ncc(cn2)NC(=O)CSC[C@@H](C(N)=O)NC1=O [Peptide Z27S1] ({CH2CO}-[X1]HLSPLEAWRQKLC-NH2; thioether N-14) |  |  | nanomolar affinity to ZNRF3 | Kd ([1]; pH 7.5, 1:1 binding model, value as given in abstract): 0.36 µM; fold increase in abundance after round 2 ([3]; enrichment after round 2): > 16,000 -fold; presence in round 1 sequencing data (in words) ([3]; round 1): not found in the round 1 sequencing data; share of total sequences in round 4 ([3]; round 4, 69,462 total sequences): 67%
[Abu]PNAAQFIRYSRA[Abu] [Peptide Z27S3Abu, Abu derivative of Z27S3] |  |  | no binding to ZNRF3 | 
CHLSPLEAWRQKLC (also: sidechain bridge or staple (positions not given here)) [Peptide Z27S1-mCP, Z27S1 cyclized with mCAmCP] |  |  | No significant dose-dependent interactions were observed; also recorded: no significant binding to ZNRF3 | 
CC[C@H](C)[C@@H]1NC(=O)[C@H](Cc2ccccc2)NC(=O)[C@H](CCC(N)=O)NC(=O)[C@H](C)NC(=O)[C@H](C)NC(=O)[C@H](CC(N)=O)NC(=O)[C@@H]2CCCN2C(=O)[C@@H]2CSC(=N2)c2ncc(cn2)NC(=O)CSC[C@@H](C(N)=O)NC(=O)[C@H](C)NC(=O)[C@H](CCCNC(=N)N)NC(=O)[C@H](CO)NC(=O)[C@H](Cc2ccc(O)cc2)NC(=O)[C@H](CCCNC(=N)N)NC1=O [Peptide Z27S3] ({CH2CO}-[X1]PNAAQFIRYSRAC-NH2; thioether N-14) | 3.5 ± 0.3 |  |  | 
